The NIST ThermoML archive (doi:10.1016/j.jct.2008.01.009)
Numbers after ± are expanded uncertainties.

Tests used:
[1] = molar heat capacity at saturation pressure
[2] = for vapor or sublimation pressure / mass density: Liquid; for mass density: Vibrating tube method
[3] = Molar enthalpy of transition or fusion; conditions: Crystal 1; Adiabatic calorimetry

C1=Cc2ccccc2CC1 [1,2-dihydronaphthalene]
Conditions | molar heat capacity [J/K/mol] | vapor or sublimation pressure [kPa]
[1], 153.85 K, Crystal 2 | 100.66 ± 0.6 | –
[1], 159.03 K, Crystal 2 | 103.99 ± 0.61 | –
[1], 164.19 K, Crystal 2 | 106.64 ± 0.61 | –
[1], 169.6 K, Crystal 2 | 109.63 ± 0.61 | –
[1], 171.24 K, Crystal 2 | 110.54 ± 0.62 | –
[1], 175.29 K, Crystal 2 | 112.56 ± 0.62 | –
[1], 178.78 K, Crystal 2 | 114.67 ± 0.63 | –
[1], 180.37 K, Crystal 2 | 115.57 ± 0.63 | –
[1], 180.88 K, Crystal 2 | 115.84 ± 0.63 | –
[1], 186.07 K, Crystal 2 | 118.77 ± 0.64 | –
[1], 186.76 K, Crystal 2 | 119.11 ± 0.64 | –
[1], 187.6 K, Crystal 2 | 120.08 ± 0.64 | –
[1], 192.71 K, Crystal 2 | 124.28 ± 0.65 | –
[1], 192.99 K, Crystal 2 | 123.59 ± 0.65 | –
[1], 197.84 K, Crystal 1, Small (less than 1 g) adiabatic calorimetry | 128.42 ± 0.71 | –
[1], 199.44 K, Crystal 1, Small (less than 1 g) adiabatic calorimetry | 129.23 ± 0.71 | –
[1], 202.96 K, Crystal 1, Small (less than 1 g) adiabatic calorimetry | 130.85 ± 0.72 | –
[1], 206.23 K, Crystal 1, Small (less than 1 g) adiabatic calorimetry | 132.6 ± 0.73 | –
[1], 208.77 K, Crystal 1, Small (less than 1 g) adiabatic calorimetry | 134.08 ± 0.74 | –
[1], 213.6 K, Crystal 1, Small (less than 1 g) adiabatic calorimetry | 137.01 ± 0.75 | –
[1], 215.96 K, Crystal 1, Small (less than 1 g) adiabatic calorimetry | 138.43 ± 0.76 | –
[1], 219.37 K, Crystal 1, Small (less than 1 g) adiabatic calorimetry | 140.75 ± 0.77 | –
[1], 230.97 K, Crystal 1, Small (less than 1 g) adiabatic calorimetry | 148.65 ± 0.8 | –
[1], 238.26 K, Crystal 1, Small (less than 1 g) adiabatic calorimetry | 153.96 ± 0.81 | –
[1], 243.92 K, Crystal 1, Small (less than 1 g) adiabatic calorimetry | 158.36 ± 0.83 | –
[1], 252.96 K, Crystal 1, Small (less than 1 g) adiabatic calorimetry | 166.39 ± 0.86 | –
[1], 255.1 K, Crystal 1, Small (less than 1 g) adiabatic calorimetry | 168.26 ± 0.87 | –
[2], 290 K, Inclined piston gauge | – | 0.0253 ± 0.001
[2], 299.97 K, Inclined piston gauge | – | 0.0534 ± 0.0011
[2], 310 K, Inclined piston gauge | – | 0.1078 ± 0.0011
[2], 319.99 K, Inclined piston gauge | – | 0.2047 ± 0.0012
[2], 329.98 K, Inclined piston gauge | – | 0.3717 ± 0.0014
[2], 339.99 K, Inclined piston gauge | – | 0.6472 ± 0.0018
[2], 349.98 K, Inclined piston gauge | – | 1.086 ± 0.0024
[2], 359.98 K, Inclined piston gauge | – | 1.76 ± 0.0031
[2], 362.71 K, Twin ebulliometer | – | 1.998 ± 0.01
[2], 364.97 K, Inclined piston gauge | – | 2.214 ± 0.0038
[2], 369.18 K, Twin ebulliometer | – | 2.671 ± 0.011
[2], 369.98 K, Inclined piston gauge | – | 2.766 ± 0.0044
[2], 378.73 K, Twin ebulliometer | – | 4.013 ± 0.011
[2], 385.76 K, Twin ebulliometer | – | 5.332 ± 0.011
[2], 396.37 K, Twin ebulliometer | – | 7.999 ± 0.012
[2], 404.33 K, Twin ebulliometer | – | 10.67 ± 0.013
[2], 410.79 K, Twin ebulliometer | – | 13.33 ± 0.014
[2], 417.49 K, Twin ebulliometer | – | 16.67 ± 0.015
[2], 423.06 K, Twin ebulliometer | – | 19.93 ± 0.017
[2], 430.39 K, Twin ebulliometer | – | 25.02 ± 0.019
[2], 437.8 K, Twin ebulliometer | – | 31.18 ± 0.022
[2], 445.24 K, Twin ebulliometer | – | 38.56 ± 0.025
[2], 452.74 K, Twin ebulliometer | – | 47.37 ± 0.029
[2], 460.3 K, Twin ebulliometer | – | 57.81 ± 0.033
[2], 467.91 K, Twin ebulliometer | – | 70.1 ± 0.038
[2], 475.59 K, Twin ebulliometer | – | 84.53 ± 0.044
[2], 483.32 K, Twin ebulliometer | – | 101.33 ± 0.05
[2], 491.1 K, Twin ebulliometer | – | 120.79 ± 0.06
[2], 498.94 K, Twin ebulliometer | – | 143.26 ± 0.07
[2], 506.84 K, Twin ebulliometer | – | 169.03 ± 0.07

[1], Liquid, Small (less than 1 g) adiabatic calorimetry
Conditions | molar heat capacity [J/K/mol]
271.21 K | 199.33 ± 1
272.18 K | 199.68 ± 1
272.24 K | 199.7 ± 1
280.33 K | 202.71 ± 1
288.36 K | 205.77 ± 1
291.65 K | 207.11 ± 1
303.09 K | 211.59 ± 1
318.19 K | 217.77 ± 1.1
333.27 K | 224.04 ± 1.1
348.76 K | 230.58 ± 1.1
364.66 K | 237.34 ± 1.1
380.18 K | 243.96 ± 1.2
395.44 K | 250.46 ± 1.2
410.93 K | 257.02 ± 1.2
426.18 K | 263.43 ± 1.3
438.72 K | 268.69 ± 1.3

[2]
Conditions | Triple point temperature [K] | mass density [kg/m3]
323.15 K | – | 971.8 ± 0.2
348.15 K | – | 951.1 ± 0.2
373.15 K | – | 930.3 ± 0.2
398.15 K | – | 909.7 ± 0.2
423.15 K | – | 889.1 ± 0.2
448.15 K | – | 867.8 ± 0.2
473.15 K | – | 846.1 ± 0.2
Crystal 1, Adiabatic calorimetry | 264.38 ± 0.05 | –

Conditions | Molar enthalpy of transition or fusion [kcal/mol]
[3] | 2.5198 ± 0.00239
